Data taken from US8734796B2, “Carrier immunoglobulins” (Amgen Inc., priority 2009, dated 2014).
No end group written: not given here.

Key:
[1] = system: thapsigargin-induced IL-2 secretion from T cells in human whole blood; experiment: Human whole blood ex vivo assay, IL-2 secretion; assay type: cell-based; details: for IC50: 50% human whole blood, thapsigargin stimulus, 48 hours, read-out: WB (IL-2) IC50
[2] = system: thapsigargin-induced IFN-g secretion from T cells in human whole blood; experiment: Human whole blood ex vivo assay, IFN-g secretion; assay type: cell-based; details: 50% human whole blood, thapsigargin stimulus, 48 hours; read-out: WB (IFNg) IC50
[3] = target: cloned hKv1.5 (Homo sapiens, UniProt P22460); experiment: FASTPatch PatchXpress counterscreen, hKv1.5; assay type: cell-based; details: positive control, 2 mM
[4] = reported by C. Beeton et al., PNAS 98:13942 (2001); cited from earlier work
[5] = target: T1, cloned hKv4.3 (Homo sapiens, UniProt Q9UK17); experiment: FASTPatch PatchXpress counterscreen, hKv4.3; assay type: cell-based; details: positive control, 0.1 mM
T1 sequence (Q9UK17 1-655): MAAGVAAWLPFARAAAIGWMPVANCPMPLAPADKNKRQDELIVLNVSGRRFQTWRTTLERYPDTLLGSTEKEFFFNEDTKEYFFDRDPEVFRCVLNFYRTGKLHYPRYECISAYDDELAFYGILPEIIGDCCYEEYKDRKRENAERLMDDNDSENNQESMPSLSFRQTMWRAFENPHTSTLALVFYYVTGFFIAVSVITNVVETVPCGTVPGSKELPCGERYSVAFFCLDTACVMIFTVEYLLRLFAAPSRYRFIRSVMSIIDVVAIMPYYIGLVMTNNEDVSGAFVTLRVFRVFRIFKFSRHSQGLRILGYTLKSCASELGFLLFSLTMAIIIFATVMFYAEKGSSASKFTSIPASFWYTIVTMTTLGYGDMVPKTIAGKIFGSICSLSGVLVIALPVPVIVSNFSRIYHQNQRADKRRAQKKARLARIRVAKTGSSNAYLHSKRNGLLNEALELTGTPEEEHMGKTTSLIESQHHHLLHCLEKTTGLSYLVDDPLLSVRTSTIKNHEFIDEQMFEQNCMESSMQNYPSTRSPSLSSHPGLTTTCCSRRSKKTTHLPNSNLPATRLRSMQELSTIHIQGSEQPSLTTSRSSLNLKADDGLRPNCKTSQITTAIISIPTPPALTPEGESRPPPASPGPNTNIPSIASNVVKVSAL

[6] = target: human Kv1.3 (Homo sapiens, UniProt P22001); experiment: Whole cell patch clamp electrophysiology, Kv1.3
[7] = target: T2, DNP(31)-BSA (Bos taurus, UniProt P02769); experiment: BIAcore binding assay, DNP(31)-BSA; details: apparent
T2 construct: purchased Biosearch Technologies, Inc. (Novato, Calif.)
Experimental: Materials. Purified anti-DNP antibodies from either hybridoma (3A1, 3C2, 3A4 and 3B1) or recombinant CHO (3A4-F-G2 and 3B1-G2) expression were tested. Anti-human IgG, Fcγ-specific antibody was from Jackson ImmunoResearch Laboratories, Inc. (West Grove, Pa.). DNP-BSA (2,4-dinitrophenol conjugated to bovine serum albumin) was from Biosearch Technologies, Inc. (Novato, Calif.). BIACore 2000, research grade sensor chip CM5, surfactant P-20 (polyoxyethylenesorbitan), HBS-EP (10 mM HEPES, 0.15M NaCl, 3.4 mM EDTA, 0.005% P-20, pH 7.4), amine coupling reagents, 10 mM acetate pH 4.0 and 10 mM glycine, pH 1.5 were from BIACore, Inc. (Piscataway, N.J.). Phosphate-buffered saline (PBS, 1×, no calcium chloride, no magnesium chloride) was from Invitrogen (Carlsbad, Calif.). Bovine serum albumin (BSA, fraction V, IgG free) was from Sigma (St. Louis, Mo.).
Methods. BIAcore® analyses were carried out as follows. Immobilization of anti-human IgG, Fcγ-specific antibody to the CM5 sensor chip surface was performed according to manufacturer's instructions, using a continuous flow of 10 mM HEPES, 0.15M NaCl, 3.4 mM EDTA, 0.005% P-20, pH 7.4 (HBS-EP buffer). Briefly, carboxyl groups on the sensor chip surfaces were activated by injecting 60 μL of a mixture containing 0.2 M 1-ethyl-3-[3-dimethylaminopropyl]carbodiimide hydrochloride (EDC) and 0.05 M N-hydroxysuccinimide (NHS). Specific surfaces were obtained by injecting 180 μL of anti-human IgG, Fcγ-specific antibody diluted in 10 mM acetate buffer (for assay of aKLH antibodies: pH 4.5 at a concentration of 30 μg/mL; for assay of aDNP antibodies: pH 4.0 at a concentration of 60 μg/mL). Excess reactive groups on the surfaces were deactivated by injecting 60 μL of 1 M ethanolamine. Final immobilized levels were about 9,000 (for assay of aKLH antibodies) or about 10,000 (for assay of aDNP antibodies) resonance units (RU). A blank, mock-coupled reference surface was also prepared on the sensor chip. Antibodies and antigen were diluted in sample buffer consisting of PBS+0.005% P-20+0.1 mg/mL BSA. […]

T2 sequence (P02769 25-607): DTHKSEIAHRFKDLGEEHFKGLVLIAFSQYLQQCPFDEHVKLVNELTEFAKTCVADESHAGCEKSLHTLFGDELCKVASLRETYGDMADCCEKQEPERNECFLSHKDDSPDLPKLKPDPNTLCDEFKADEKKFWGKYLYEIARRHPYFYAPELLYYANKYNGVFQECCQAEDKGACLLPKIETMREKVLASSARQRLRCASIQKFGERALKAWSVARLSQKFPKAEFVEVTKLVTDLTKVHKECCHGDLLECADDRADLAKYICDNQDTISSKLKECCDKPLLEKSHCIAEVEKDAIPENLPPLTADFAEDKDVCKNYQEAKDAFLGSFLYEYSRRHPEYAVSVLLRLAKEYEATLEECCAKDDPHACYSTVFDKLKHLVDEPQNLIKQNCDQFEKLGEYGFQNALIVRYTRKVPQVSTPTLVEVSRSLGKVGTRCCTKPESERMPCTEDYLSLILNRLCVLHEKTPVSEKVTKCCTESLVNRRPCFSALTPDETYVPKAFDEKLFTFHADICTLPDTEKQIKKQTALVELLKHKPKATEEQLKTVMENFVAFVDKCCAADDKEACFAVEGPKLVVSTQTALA
Sequence of human Kv1.3 (P22001 whole entry): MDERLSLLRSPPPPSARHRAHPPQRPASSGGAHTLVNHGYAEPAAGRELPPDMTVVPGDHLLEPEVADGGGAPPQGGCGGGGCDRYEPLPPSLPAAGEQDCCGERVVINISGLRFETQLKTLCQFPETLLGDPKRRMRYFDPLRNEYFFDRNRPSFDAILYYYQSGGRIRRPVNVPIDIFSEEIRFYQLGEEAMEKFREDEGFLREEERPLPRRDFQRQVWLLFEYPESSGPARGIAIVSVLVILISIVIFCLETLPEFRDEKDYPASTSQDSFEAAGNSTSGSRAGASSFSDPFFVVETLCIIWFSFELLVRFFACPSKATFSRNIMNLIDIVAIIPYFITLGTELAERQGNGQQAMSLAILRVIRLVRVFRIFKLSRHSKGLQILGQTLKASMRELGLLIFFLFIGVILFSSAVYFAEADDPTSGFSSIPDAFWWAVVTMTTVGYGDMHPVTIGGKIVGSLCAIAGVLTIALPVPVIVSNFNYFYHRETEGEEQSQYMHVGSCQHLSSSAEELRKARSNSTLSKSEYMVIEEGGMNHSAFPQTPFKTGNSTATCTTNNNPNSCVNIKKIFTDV
Sequence of cloned hKv1.5 (P22460 whole entry): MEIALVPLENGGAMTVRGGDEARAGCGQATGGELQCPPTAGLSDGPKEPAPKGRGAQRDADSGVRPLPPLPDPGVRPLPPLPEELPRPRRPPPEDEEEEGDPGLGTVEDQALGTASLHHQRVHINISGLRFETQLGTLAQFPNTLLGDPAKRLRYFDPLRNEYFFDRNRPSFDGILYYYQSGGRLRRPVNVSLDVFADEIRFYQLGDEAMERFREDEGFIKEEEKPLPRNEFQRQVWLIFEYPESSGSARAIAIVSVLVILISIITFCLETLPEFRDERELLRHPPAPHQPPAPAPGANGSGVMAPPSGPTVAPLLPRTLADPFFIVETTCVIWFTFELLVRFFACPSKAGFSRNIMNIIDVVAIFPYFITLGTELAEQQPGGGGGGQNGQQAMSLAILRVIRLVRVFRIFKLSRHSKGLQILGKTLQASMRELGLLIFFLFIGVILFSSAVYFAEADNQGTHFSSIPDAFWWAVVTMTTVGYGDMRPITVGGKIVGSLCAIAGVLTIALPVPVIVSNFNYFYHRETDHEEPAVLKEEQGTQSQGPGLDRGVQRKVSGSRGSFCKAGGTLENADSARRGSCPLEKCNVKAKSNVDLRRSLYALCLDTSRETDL

20 kDa-PEG-ShK: SEQ ID NO:363; ShK PEGylated at its N-terminus with 20 kDa PEG [reference compound]
IC50 [1]: 0.38 nM
IC50 [2]: 0.84 nM

Nc1ccncc1 [4-aminopyridine]
block of the hKv1.5 current [3]: about 80%

CC[C@H](C)[C@@H]1NC(=O)[C@@H](NC(=O)[C@H](CO)NC(=O)[C@@H](N)CCCNC(=N)N)CSSC[C@@H](C(=O)O)NC(=O)[C@H]([C@@H](C)O)NC(=O)CNC(=O)[C@@H]2CSSC[C@@H]3NC(=O)[C@H](CCC(N)=O)NC(=O)[C@H](Cc4ccccc4)NC(=O)[C@H](C)NC(=O)[C@H]([C@@H](C)O)NC(=O)[C@H](CSSC[C@H](NC(=O)[C@H](Cc4ccccc4)NC(=O)[C@H](CO)NC(=O)[C@H](CC(C)C)NC(=O)[C@H](CCCNC(=N)N)NC(=O)[C@H](Cc4ccc(O)cc4)NC(=O)[C@H](CCCCN)NC(=O)[C@H](CCSC)NC(=O)[C@H](CO)NC(=O)[C@H](Cc4cnc[nH]4)NC(=O)[C@H](CCCCN)NC3=O)C(=O)N[C@@H](CCCNC(=N)N)C(=O)N[C@@H](CCCCN)C(=O)N[C@@H]([C@@H](C)O)C(=O)N2)NC(=O)[C@H](CCCNC(=N)N)NC(=O)[C@H](CO)NC(=O)[C@H](CCCCN)NC(=O)[C@@H]2CCCN2C(=O)[C@H]([C@@H](C)CC)NC(=O)[C@H]([C@@H](C)O)NC(=O)[C@H](CC(=O)O)NC1=O [ShK(1-35), ShK]
half-life [4]: 20 to 30 min

O=C(NCC1CCCCN1)c1cc(OCC(F)(F)F)ccc1OCC(F)(F)F (stereo not drawn) [flecamide]
inhibition of the hKv4.3 current [5]: about 75%

Bivalent Fc-L10-ShK[1-35] homodimer: IgG1 Fc-L10-ShK(1-35) peptibody homodimer, Example 1 of WO2008/088422A2 (GGGGSGGGGSRSCIDTIPKSRCTAFQCKHSMKYRLSFCRKTCGTC; not fully specified (N-terminus); ends and bridges not checked; also: homodimer via Fc) [reference compound]
IC50 [1]: 0.386 nM
IC50 [2]: 0.32 nM
greater Kv1.3 activity compared to the bivalent Fc-L10-ShK(2-35) molecule ([6]; whole cell patch clamp electrophysiology): about 8 fold

Bivalent Fc-L10-ShK[2-35] homodimer: IgG1 Fc-L10-ShK(2-35) peptibody homodimer, Example 2 of WO2008/088422A2 (GGGGSGGGGSSCIDTIPKSRCTAFQCKHSMKYRLSFCRKTCGTC; not fully specified (N-terminus); ends and bridges not checked; also: homodimer via Fc) [reference compound]
IC50 [1]: 0.585 nM
Potency Relative to ShK (WB, IL2) ([1]; ratio of WB IL-2 IC50 to that of ShK(1-35)): 8.73
IC50 [2]: 2.29 nM
Kv1.1/Kv1.3 Selectivity Ratio (of asterisked IC50 values) ([6]; IC50 values from whole cell patch clamp): 3.54

B1: 3B1-G2: recombinant IgG2 form of anti-DNP antibody 3B1 (protein)
light: DIQMTQSPSSLSASEGDRVTITCRASQGIRNDLGWYQQKPGKAPKRLIYAASSLQSGVPLRFSGSGSGTEFTLTISSLQPEDFATYYCLQYNSYPWTFGQGTKVEIKRTVAAPSVFIFPPSDEQLKSGTASVVCLLNNFYPREAKVQWKVDNALQSGNSQESVTEQDSKDSTYSLSSTLTLSKADYEKHKVYACEVTHQGLSSPVTKSFNRGEC
heavy: QVQLQESGPGLVKPSETLSLTCTVSGGSISSYYWSWIRQPPGKGLEWIGYIYYSGNTNSNPSLKSRVTISVDTSKNQFSLKLSSVTAADTAVYYCARTYYDSSGYYYRAFDIWGQGTMVTVSSASTKGPSVFPLAPCSRSTSESTAALGCLVKDYFPEPVTVSWNSGALTSGVHTFPAVLQSSGLYSLSSVVTVPSSNFGTQTYTCNVDHKPSNTKVDKTVERKCCVECPPCPAPPVAGPSVFLFPPKPKDTLMISRTPEVTCVVVDVSHEDPEVQFNWYVDGVEVHNAKTKPREEQFNSTFRVVSVLTVVHQDWLNGKEYKCKVSNKGLPAPIEKTISKTKGQPREPQVYTLPPSREEMTKNQVSLTCLVKGFYPSDIAVEWESNGQPENNYKTTPPMLDSDGSFFLYSKLTVDKSRWQQGNVFSCSVMHEALHNHYTQKSLSLSPGK
Kd [7]: 0.7 nM
ka, Binding to DNP(31)-BSA ([7]; ne(y) = n × 10^(y)): 420000 M⁻¹ s⁻¹
kd, Binding to DNP(31)-BSA ([7]; ne(y) = n × 10^(y)): 0.00031 s⁻¹
